Measurements: publication PMC10343475, “Systematic Modification of the Substitution Pattern of the 7-Hydroxy-5-oxopyrazolo[4,3-b]pyridine-6-carboxamide Scaffold Enabled the Discovery of New Ligands with High Affinity and Selectivity for the Cannabinoid Type 2 Receptor” (Molecules, 2023)
“And” between values parts separate entries of the source, which are not always exact repeats. Equal entries are not always repeated.

Experiments:
[1] = Dissolution of 63-salts in 0.9% NaCl solution (LC-MS/MS); format: physicochemical
Text: [63^−] = 9.81 × 10^−7 mol^2/L^2. […] However, starting from the cesium salt, the concentration of drug dissolved in the physiological solution maintained high values for at least one hour (around 50 × 10^−6 mol/L, with a peak higher than 100 × 10^−6 mol/L) and, for a further two hours, these values were higher than those obtained with the sodium salt. From this, it can be deduced that the 63-cesium salt would be very suitable for the extemporaneous preparation of injectable solutions in the presence of high concentrations of sodium ions.
An excess amount (~4 to 5 mg) of each salt of compound 63 was added to 5 mL of a 0.9% NaCl solution, kept under constant agitation, and thermostated at room temperature (21 ± 2 °C). At fixed time points, an aliquot was withdrawn from the solution, and centrifuged (3000 g, 10 min, RT) to separate undissolved compound and the supernatant, after dilution with MeOH, was analyzed by LC-MS/MS. An Accela UHPLC system coupled with a TSQ Quantum Access Max triple quad mass spectrometer (Thermo Fisher, Waltham, MA, USA), was employed to quantify dissolved 63 over time. UHPLC separation occurred by gradient elution, employing a Synergy Fusion C18 80Å RP-column (2.0 × 100 mm, 4 µm; Phenomenex, Bologna, Italy). Mobile phases A and B were acetonitrile and water, both with 0.1% v/v formic acid added. The following elution conditions were employed: linear gradient from 60 to 95%A in 5 min; 95% A between 5 and 8 min, returning to 60% A in 0.5 min with 2.5 min reconditioning time. Total run time: 11 min. The flow rate was 0.35 mL/min and injection volume was 10 µL. Heated electrospray (H-ESI) ion source voltage was set at 4.0 KV; capillary temperature at 270 °C. Nitrogen served both as sheath and auxiliary gas at 35 psi and 15 psi, respectively. Argon at a pressure of 1.5 mtorr was employed as collision gas. H-ESI ion source operated in positive ion mode (ESI+) and acquisition occurred in multiple reaction monitoring (MRM). Tube lens voltages (TL) and collision energies (CE) for each parent-product ion transition were optimized by flow injection analysis of 5 µM solutions of each standard in MeOH. Compound 63: m/z = 399.2 [M+H]^+ → m/z = 135.1, 107.1, 93.1 (TL = 98 V; CE = 20, 33, 37 eV, respectively). Its 1-hydroxy derivative, compound 4-(1-butyl)-4,5-dihydro-7-hydroxy-N-(1-hydroxyadamantan-3-yl)-2-methyl-5-oxo-2H-pyrazolo[4,3-b]pyridine-6-carboxamide, was employed as Internal Standard: m/z = 415.2 [M+H]^+ → m/z = 266.1, 248.1 (TL = 99 V; CE = 14, 31 eV). Calibration curves were prepared in MeOH in the 1000–10 nM concentration range starting and coefficients of determination of regression models were >0.99. Xcalibur software version 2.2 (Thermo Fisher Scientific, Inc., Waltham, MA, USA) was employed for both data acquisition and processing. […]

[2] = biological target: human recombinant CB1 receptor (Homo sapiens, UniProt P21554); assay: Competition binding assay, displacement of [3H]-CP-55,940, CB1R; details: for Ki: membranes from HEK cells, [3H]CP-55,940, mean ± SD, at least three experiments in duplicate, read-out: CB1R Ki
Experimental: (§1) Binding at equilibrium was performed as previously reported. […] All compounds were tested following the procedure described by the manufacturer (Perkin Elmer, Italy). […] Ki values were calculated by applying the Cheng–Prusoff equation to the IC50 values (obtained by GraphPad) for the displacement of the bound radioligand by increasing concentrations of the test compound.

human CB2 receptor [3] = biological target: T1, human CB2 receptor (Homo sapiens, UniProt P34972); assay: Competition binding assay, displacement of [3H]-CP-55,940, CB2R; set-up: logKiCB2 (nM) Exp.: unit not given here
Experimental: as §1

human CB2 receptor [4] = biological target: T1, human CB2 receptor; assay: cAMP Hunter functional assay in NKH-477-stimulated CHO-K1 cells overexpressing CB2R; details: agonist mode / antagonist mode with JWH-133 4 µM challenge
human CB2 receptor [5] = biological target: T1, human CB2 receptor; details: Figure 1, earlier ligands of the group; cited from earlier work
[6] = CB2R Ki, membranes from HEK cells, [3H]CP-55,940, mean ± SD, at least three experiments in duplicate

human recombinant CB1 receptor, sequence (P21554 whole entry): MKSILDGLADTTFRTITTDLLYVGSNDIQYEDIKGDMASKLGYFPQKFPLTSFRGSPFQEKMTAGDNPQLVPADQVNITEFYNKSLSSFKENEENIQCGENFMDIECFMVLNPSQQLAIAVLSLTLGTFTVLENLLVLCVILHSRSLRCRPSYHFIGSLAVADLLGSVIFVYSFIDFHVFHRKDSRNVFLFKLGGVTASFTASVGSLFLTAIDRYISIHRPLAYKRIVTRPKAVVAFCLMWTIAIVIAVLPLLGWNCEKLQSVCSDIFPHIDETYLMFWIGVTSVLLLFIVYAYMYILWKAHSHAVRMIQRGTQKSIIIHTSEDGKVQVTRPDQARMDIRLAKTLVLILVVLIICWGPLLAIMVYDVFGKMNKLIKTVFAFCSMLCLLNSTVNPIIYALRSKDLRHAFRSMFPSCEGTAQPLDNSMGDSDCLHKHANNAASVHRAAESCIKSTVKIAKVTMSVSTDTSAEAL
T1 sequence (P34972 whole entry): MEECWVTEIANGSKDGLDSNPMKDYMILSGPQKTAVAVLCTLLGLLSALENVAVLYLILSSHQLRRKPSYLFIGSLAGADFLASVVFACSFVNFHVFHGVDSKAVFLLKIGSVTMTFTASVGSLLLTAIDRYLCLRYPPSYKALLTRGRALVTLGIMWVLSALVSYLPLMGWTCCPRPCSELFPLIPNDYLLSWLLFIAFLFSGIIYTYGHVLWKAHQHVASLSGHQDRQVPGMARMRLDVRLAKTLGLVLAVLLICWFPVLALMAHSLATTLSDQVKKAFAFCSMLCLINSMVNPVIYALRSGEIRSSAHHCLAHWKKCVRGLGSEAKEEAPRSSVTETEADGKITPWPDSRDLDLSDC

Structure (SMILES) | Ki [2] [nM] | Ki (human CB2 receptor [3]; [6]) | melting point [°C] | Functional behavior at CB2R (human CB2 receptor [4]) | also measured
CCCCn1c(=O)c(C(=O)NC23CC4CC(CC(C4)C2)C3)c(O)c2nn(C)cc21.[Cs] [63-cesium salt, N-(Adamantan-1-yl)-4-(1-butyl)-7-hydroxy-2-methyl-5-oxo-4,5-dihydro-2H-pyrazolo[4,3-b]pyridine-6-carboxamide Cesium Salt] | – | – | – | – | Concentration of dissolved 63 maintained for at least one hour ([1]; 0.9% NaCl): around 50 × 10^−6 mol/L; Peak concentration of dissolved 63 ([1]; 0.9% NaCl): higher than 100 × 10^−6 mol/L; Time to decrease to the value consistent with the Ks of the sodium salt ([1]; 0.9% NaCl): 200 min
CCCCn1c(=O)c(C(=O)NC23CC4CC(CC(C4)C2)C3)c(O)c2nn(C)cc21.[Na] [63-sodium salt, N-(Adamantan-1-yl)-4-(1-butyl)-7-hydroxy-2-methyl-5-oxo-4,5-dihydro-2H-pyrazolo[4,3-b]pyridine-6-carboxamide Sodium Salt] | – | – | – | – | Concentration of dissolved 63, average over time points ([1]; excess salt in 0.9% NaCl, room temperature): 6.37 µM
CCCCCn1c(=O)c(C(=O)NC23CC4CC(CC(C4)C2)C3)c(O)c2nn(C)c(C)c21 [Compound 55, N-(Adamantan-1-yl)-7-hydroxy-2,3-dimethyl-5-oxo-4-(1-pentyl)-4,5-dihydro-2H-pyrazolo[4,3-b]pyridine-6-carboxamide] | > 10000 | < 20 nM and 2.11 nM | 67 | antagonist/inverse agonist behavior | CB1 receptor activity in words [2]: not active at all; logKiCB2 (nM) Exp. (human CB2 receptor [3]; log of experimental Ki): 0.32
Cn1cc2c(n1)c(O)c(C(=O)NC13CC4CC(CC(C4)C1)C3)c(=O)n2Cc1ccccc1 [Compound 26, N-(Adamantan-1-yl)-4-benzyl-7-hydroxy-2-methyl-5-oxo-4,5-dihydro-2H-pyrazolo[4,3-b]pyridine-6-carboxamide] | – | < 20 nM and 0.48 nM | 180 to 183 | antagonist/inverse agonist behavior | –
CCCCn1c(=O)c(C(=O)NC2CCCc3ccccc32)c(O)c2nn(C)cc21 (stereo not shown) [Compound 18, 4-(1-Butyl)-7-hydroxy-2-methyl-5-oxo-N-(1,2,3,4-tetrahydronaphthalen-1-yl)-4,5-dihydro-2H-pyrazolo[4,3-b]pyridine-6-carboxamide] | > 10000 | < 20 nM and 17.3 nM | – | antagonist/inverse agonist behavior | SI (selectivity index for CB2R, Ki(CB1R)/Ki(CB2R)) (human CB2 receptor [3]): >578; Ki (human CB2 receptor [3]; logKiCB2 (nM) Exp., log of experimental Ki): 24 nM
CCCCCn1c(=O)c(C(=O)NC23CC4CC(CC(C4)C2)C3)c(O)c2nn(C)cc21 [Compound 3, reference compound] | – | – | – | – | Selectivity Index (human CB2 receptor [5]): 167
